Data published in patent publication US20260262643A1, “HERBICIDAL BENZOXAZINES” (FMC CORPORATION, priority 2022, published 2026).

Experiments:
[1] = system: wheat; assay: Test C preemergence; assay type: in vivo, Triticum aestivum; details: for Wheat plant response rating: 500 g ai/ha, preemergence, 0 to 100 scale (0 no effect, 100 complete control); for Plant response rating, Wheat: Preemergence, 125 g ai/ha, 0 to 100 scale, 0 no effect, 100 complete control
In short: (§1)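 Greenhouse herbicide screen, 10-day duration. Test chemicals in solvent/surfactant blend were sprayed onto soil at sowing (pre) or onto 2–10 cm seedlings at one to two leaves (post); injury scored visually against controls, 0 no effect to 100 complete control.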

[2] = system: ducksalad; assay: Test D flooded paddy test; assay type: in vivo, Heteranthera limosa; details: 250 g ai/ha, applied to paddy water, visual rating after 13 to 14 days, scale 0 to 100 (0 no effect, 100 complete control)
In short: (§2)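 Post-flood water application at the 2-leaf stage; 3 cm flood depth kept constant; visual control rating 0–100 after 13–14 days greenhouse growth.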

[3] = system: blackgrass; assay: Test C postemergence; assay type: in vivo, Alopecurus myosuroides; details: 10 days, 0 to 100 scale (0 no effect, 100 complete control)
In short: as §1

[4] = system: ryegrass, Italian; assay: Test C postemergence; assay type: in vivo, Lolium multiflorum; details: 10 days, 0 to 100 scale (0 no effect, 100 complete control)
In short: as §1

[5] = system: oat, wild; assay: Test C preemergence; assay type: in vivo, Avena fatua; details: for Oat, Wild plant response rating: 500 g ai/ha, preemergence, 0 to 100 scale (0 no effect, 100 complete control); for Plant response rating, Oat, Wild: Preemergence, 125 g ai/ha, 0 to 100 scale, 0 no effect, 100 complete control
In short: as §1

[6] = system: green foxtail; assay: Test C preemergence; assay type: in vivo, Setaria viridis; details: for Foxtail, Green plant response rating: 500 g ai/ha, preemergence, 0 to 100 scale (0 no effect, 100 complete control); for Plant response rating, Foxtail, Green: Preemergence, 125 g ai/ha, 0 to 100 scale, 0 no effect, 100 complete control
In short: as §1

[7] = system: pigweed, palmer; assay: Test C postemergence; assay type: in vivo, Amaranthus palmeri; details: 10 days, 0 to 100 scale (0 no effect, 100 complete control)
In short: as §1

[8] = system: barnyardgrass; assay: Test C postemergence; assay type: in vivo, Echinochloa crusgalli; details: 10 days, 0 to 100 scale (0 no effect, 100 complete control)
In short: as §1

[9] = system: soybean; assay: Test C postemergence; assay type: in vivo, Glycine max; details: 10 days, 0 to 100 scale (0 no effect, 100 complete control)
In short: as §1

[10] = system: barnyardgrass; assay: Test C preemergence; assay type: in vivo, Echinochloa crusgalli; details: for Barnyardgrass plant response rating: 500 g ai/ha, preemergence, 0 to 100 scale (0 no effect, 100 complete control); for Plant response rating, Barnyardgrass: Preemergence, 125 g ai/ha, 0 to 100 scale, 0 no effect, 100 complete control
In short: as §1

[11] = system: ragweed; assay: Test C postemergence; assay type: in vivo, Ambrosia artemisiifolia; details: 10 days, 0 to 100 scale (0 no effect, 100 complete control)
In short: as §1

[12] = system: galium; assay: Test C postemergence; assay type: in vivo, Galium aparine; details: 10 days, 0 to 100 scale (0 no effect, 100 complete control)
In short: as §1

[13] = system: oat, wild; assay: Test C postemergence; assay type: in vivo, Avena fatua; details: 10 days, 0 to 100 scale (0 no effect, 100 complete control)
In short: as §1

[14] = system: corn; assay: Test C preemergence; assay type: in vivo, Zea mays; details: for Corn plant response rating: 500 g ai/ha, preemergence, 0 to 100 scale (0 no effect, 100 complete control); for Plant response rating, Corn: Preemergence, 125 g ai/ha, 0 to 100 scale, 0 no effect, 100 complete control
In short: as §1

[15] = system: corn; assay: Test C postemergence; assay type: in vivo, Zea mays; details: 10 days, 0 to 100 scale (0 no effect, 100 complete control)
In short: as §1

[16] = system: wheat; assay: Test C postemergence; assay type: in vivo, Triticum aestivum; details: 10 days, 0 to 100 scale (0 no effect, 100 complete control)
In short: as §1

[17] = system: blackgrass; assay: Test C preemergence; assay type: in vivo, Alopecurus myosuroides; details: for Blackgrass plant response rating: 500 g ai/ha, preemergence, 0 to 100 scale (0 no effect, 100 complete control); for Plant response rating, Blackgrass: Preemergence, 125 g ai/ha, 0 to 100 scale, 0 no effect, 100 complete control
In short: as §1

[18] = system: horseweed; assay: Test C postemergence; assay type: in vivo, Erigeron canadensis; details: 10 days, 0 to 100 scale (0 no effect, 100 complete control)
In short: as §1

[19] = system: barnyardgrass; assay: Test D flooded paddy test; assay type: in vivo, Echinochloa crus-galli; details: 250 g ai/ha, applied to paddy water, visual rating after 13 to 14 days, scale 0 to 100 (0 no effect, 100 complete control)
In short: as §2

[20] = system: kochia; assay: Test C postemergence; assay type: in vivo, Bassia scoparia; details: 10 days, 0 to 100 scale (0 no effect, 100 complete control)
In short: as §1

[21] = system: ryegrass, Italian; assay: Test C preemergence; assay type: in vivo, Lolium multiflorum; details: for Ryegrass, Italian plant response rating: 500 g ai/ha, preemergence, 0 to 100 scale (0 no effect, 100 complete control); for Plant response rating, Ryegrass, Italian: Preemergence, 125 g ai/ha, 0 to 100 scale, 0 no effect, 100 complete control
In short: as §1

[22] = system: sedge, umbrella; assay: Test D flooded paddy test; assay type: in vivo, Cyperus difformis; details: 250 g ai/ha, applied to paddy water, visual rating after 13 to 14 days, scale 0 to 100 (0 no effect, 100 complete control)
In short: as §2

[23] = system: soybean; assay: Test C preemergence; assay type: in vivo, Glycine max; details: for Soybean plant response rating: 500 g ai/ha, preemergence, 0 to 100 scale (0 no effect, 100 complete control); for Plant response rating, Soybean: Preemergence, 125 g ai/ha, 0 to 100 scale, 0 no effect, 100 complete control
In short: as §1

[24] = system: kochia; assay: Test C preemergence; assay type: in vivo, Bassia scoparia; details: for Kochia plant response rating: 500 g ai/ha, preemergence, 0 to 100 scale (0 no effect, 100 complete control); for Plant response rating, Kochia: Preemergence, 125 g ai/ha, 0 to 100 scale, 0 no effect, 100 complete control
In short: as §1

[25] = system: ragweed; assay: Test C preemergence; assay type: in vivo, Ambrosia artemisiifolia; details: for Ragweed plant response rating: 500 g ai/ha, preemergence, 0 to 100 scale (0 no effect, 100 complete control); for Plant response rating, Ragweed: Preemergence, 125 g ai/ha, 0 to 100 scale, 0 no effect, 100 complete control
In short: as §1

[26] = system: green foxtail; assay: Test C postemergence; assay type: in vivo, Setaria viridis; details: 10 days, 0 to 100 scale (0 no effect, 100 complete control)
In short: as §1

[27] = system: rice; assay: Test D flooded paddy test; assay type: in vivo, Oryza sativa; details: 250 g ai/ha, applied to paddy water, visual rating after 13 to 14 days, scale 0 to 100 (0 no effect, 100 complete control)
In short: as §2

[28] = system: pigweed, palmer; assay: Test C preemergence; assay type: in vivo, Amaranthus palmeri; details: for Pigweed, Palmer plant response rating: 500 g ai/ha, preemergence, 0 to 100 scale (0 no effect, 100 complete control); for Plant response rating, Pigweed, Palmer: Preemergence, 125 g ai/ha, 0 to 100 scale, 0 no effect, 100 complete control
In short: as §1

CC(C)c1ncn(-c2cccc(C(=O)N3CC(C(F)(F)F)Oc4c(Cl)cccc43)c2)n1 (centres unmarked) [Compound 348]
Wheat plant response rating [1]: 80
Plant response rating, Wheat [1]: 50
Plant response rating, Ducksalad (Flood) [2]: 75
Plant response rating, Blackgrass ([3]; 500 g ai/ha, postemergence): 100
Plant response rating, Blackgrass ([3]; Postemergence, 125 g ai/ha): 70
Plant response rating, Ryegrass, Italian ([4]; 500 g ai/ha, postemergence): 70
Plant response rating, Ryegrass, Italian ([4]; Postemergence, 125 g ai/ha): 30
Oat, Wild plant response rating [5]: 90
Plant response rating, Oat, Wild [5]: 60
Foxtail, Green plant response rating [6]: 100
Plant response rating, Foxtail, Green [6]: 100
Plant response rating, Pigweed, Palmer ([7]; 500 g ai/ha, postemergence): 100
Plant response rating, Pigweed, Palmer ([7]; Postemergence, 125 g ai/ha): 90
Plant response rating, Barnyardgrass ([8]; 500 g ai/ha, postemergence): 40
Plant response rating, Barnyardgrass ([8]; Postemergence, 125 g ai/ha): 10
Plant response rating, Soybean ([9]; 500 g ai/ha, postemergence): 100
Plant response rating, Soybean ([9]; Postemergence, 125 g ai/ha): 100
Barnyardgrass plant response rating [10]: 100
Plant response rating, Barnyardgrass [10]: 60
Plant response rating, Ragweed ([11]; 500 g ai/ha, postemergence): 60
Plant response rating, Ragweed ([11]; Postemergence, 125 g ai/ha): 30
Plant response rating, Galium ([12]; 500 g ai/ha, postemergence): 100
Plant response rating, Galium ([12]; Postemergence, 125 g ai/ha): 100
Plant response rating, Oat, Wild ([13]; 500 g ai/ha, postemergence): 60
Plant response rating, Oat, Wild ([13]; Postemergence, 125 g ai/ha): 20
Corn plant response rating [14]: 0
Plant response rating, Corn [14]: 0
Plant response rating, Corn ([15]; 500 g ai/ha, postemergence): 30
Plant response rating, Corn ([15]; Postemergence, 125 g ai/ha): 10
Plant response rating, Wheat ([16]; 500 g ai/ha, postemergence): 30
Plant response rating, Wheat ([16]; Postemergence, 125 g ai/ha): 10
Blackgrass plant response rating [17]: 90
Plant response rating, Blackgrass [17]: 50
Plant response rating, Horseweed ([18]; 500 g ai/ha, postemergence): 40
Plant response rating, Horseweed ([18]; Postemergence, 125 g ai/ha): 0
Plant response rating, Barnyardgrass (Flood) [19]: 30
Plant response rating, Kochia ([20]; 500 g ai/ha, postemergence): 100
Plant response rating, Kochia ([20]; Postemergence, 125 g ai/ha): 70
Ryegrass, Italian plant response rating [21]: 100
Plant response rating, Ryegrass, Italian [21]: 90
Plant response rating, Sedge, Umbrella (Flood) [22]: 45
Soybean plant response rating [23]: 80
Plant response rating, Soybean [23]: 40
Kochia plant response rating [24]: 100
Plant response rating, Kochia [24]: 90
Ragweed plant response rating [25]: 20
Plant response rating, Ragweed [25]: 20
Plant response rating, Foxtail, Green ([26]; 500 g ai/ha, postemergence): 70
Plant response rating, Foxtail, Green ([26]; Postemergence, 125 g ai/ha): 50
Plant response rating, Rice (Flood) [27]: 0
Pigweed, Palmer plant response rating [28]: 100
Plant response rating, Pigweed, Palmer [28]: 100

COC[C@H]1CN(C(=O)c2cc(-n3cnc(C(C)(C)C)n3)cc3c2OCCO3)c2cccc(Cl)c2O1 [Compound 382]
Wheat plant response rating [1]: 40
Plant response rating, Wheat [1]: 0
Plant response rating, Ducksalad (Flood) [2]: 15
Plant response rating, Blackgrass ([3]; 500 g ai/ha, postemergence): 40
Plant response rating, Blackgrass ([3]; Postemergence, 125 g ai/ha): 10
Plant response rating, Ryegrass, Italian ([4]; 500 g ai/ha, postemergence): 60
Plant response rating, Ryegrass, Italian ([4]; Postemergence, 125 g ai/ha): 40
Oat, Wild plant response rating [5]: 80
Plant response rating, Oat, Wild [5]: 20
Foxtail, Green plant response rating [6]: 100
Plant response rating, Foxtail, Green [6]: 90
Plant response rating, Pigweed, Palmer ([7]; 500 g ai/ha, postemergence): 100
Plant response rating, Pigweed, Palmer ([7]; Postemergence, 125 g ai/ha): 100
Plant response rating, Barnyardgrass ([8]; 500 g ai/ha, postemergence): 50
Plant response rating, Barnyardgrass ([8]; Postemergence, 125 g ai/ha): 30
Plant response rating, Soybean ([9]; 500 g ai/ha, postemergence): 100
Plant response rating, Soybean ([9]; Postemergence, 125 g ai/ha): 100
Barnyardgrass plant response rating [10]: 100
Plant response rating, Barnyardgrass [10]: 50
Plant response rating, Ragweed ([11]; 500 g ai/ha, postemergence): 90
Plant response rating, Ragweed ([11]; Postemergence, 125 g ai/ha): 90
Plant response rating, Galium ([12]; 500 g ai/ha, postemergence): 100
Plant response rating, Galium ([12]; Postemergence, 125 g ai/ha): 100
Plant response rating, Oat, Wild ([13]; 500 g ai/ha, postemergence): 0
Plant response rating, Oat, Wild ([13]; Postemergence, 125 g ai/ha): 0
Corn plant response rating [14]: 70
Plant response rating, Corn [14]: 10
Plant response rating, Corn ([15]; 500 g ai/ha, postemergence): 50
Plant response rating, Corn ([15]; Postemergence, 125 g ai/ha): 20
Plant response rating, Wheat ([16]; 500 g ai/ha, postemergence): 40
Plant response rating, Wheat ([16]; Postemergence, 125 g ai/ha): 20
Blackgrass plant response rating [17]: 50
Plant response rating, Blackgrass [17]: 10
Plant response rating, Horseweed ([18]; 500 g ai/ha, postemergence): 50
Plant response rating, Horseweed ([18]; Postemergence, 125 g ai/ha): 50
Plant response rating, Barnyardgrass (Flood) [19]: 50
Plant response rating, Kochia ([20]; 500 g ai/ha, postemergence): 100
Plant response rating, Kochia ([20]; Postemergence, 125 g ai/ha): 90
Ryegrass, Italian plant response rating [21]: 100
Plant response rating, Ryegrass, Italian [21]: 80
Plant response rating, Sedge, Umbrella (Flood) [22]: 25
Soybean plant response rating [23]: 80
Plant response rating, Soybean [23]: 60
Kochia plant response rating [24]: 100
Plant response rating, Kochia [24]: 80
Ragweed plant response rating [25]: 100
Plant response rating, Ragweed [25]: 60
Plant response rating, Foxtail, Green ([26]; 500 g ai/ha, postemergence): 60
Plant response rating, Foxtail, Green ([26]; Postemergence, 125 g ai/ha): 20
Plant response rating, Rice (Flood) [27]: 15
Pigweed, Palmer plant response rating [28]: 100
Plant response rating, Pigweed, Palmer [28]: 100
